Read-outs that look alike come from different tables or passages of the source.
Target: HiBit-WIZ fusion protein (Homo sapiens, UniProt O95785+Q96SW2)
Experiment: Quantification of WIZ protein levels in HiBit tag fusion protein assay (WIZ HiBit assay in 293T cells)
Type: cell-based
Design: Dmax: dose or concentration left out as unconfirmed
Settings: for remaining activity at up to 25 µM: DMSO-normalized, curve-fitted percentage of WIZ-HiBit remaining at 25 uM, read-out: WIZ Amax; for DC50: WIZ HiBit assay in 293T cells, 10-point, 5-fold dose response, highest concentration 25 μM, about 18 hours, read-out: WIZ AC50
[1] = HEK-293T, 100 minus Amax, 293T cells, read-out: % degradation of WIZ (100-Amax)

HiBit-WIZ fusion protein, sequence (O95785 whole entry, the tested form may be a part): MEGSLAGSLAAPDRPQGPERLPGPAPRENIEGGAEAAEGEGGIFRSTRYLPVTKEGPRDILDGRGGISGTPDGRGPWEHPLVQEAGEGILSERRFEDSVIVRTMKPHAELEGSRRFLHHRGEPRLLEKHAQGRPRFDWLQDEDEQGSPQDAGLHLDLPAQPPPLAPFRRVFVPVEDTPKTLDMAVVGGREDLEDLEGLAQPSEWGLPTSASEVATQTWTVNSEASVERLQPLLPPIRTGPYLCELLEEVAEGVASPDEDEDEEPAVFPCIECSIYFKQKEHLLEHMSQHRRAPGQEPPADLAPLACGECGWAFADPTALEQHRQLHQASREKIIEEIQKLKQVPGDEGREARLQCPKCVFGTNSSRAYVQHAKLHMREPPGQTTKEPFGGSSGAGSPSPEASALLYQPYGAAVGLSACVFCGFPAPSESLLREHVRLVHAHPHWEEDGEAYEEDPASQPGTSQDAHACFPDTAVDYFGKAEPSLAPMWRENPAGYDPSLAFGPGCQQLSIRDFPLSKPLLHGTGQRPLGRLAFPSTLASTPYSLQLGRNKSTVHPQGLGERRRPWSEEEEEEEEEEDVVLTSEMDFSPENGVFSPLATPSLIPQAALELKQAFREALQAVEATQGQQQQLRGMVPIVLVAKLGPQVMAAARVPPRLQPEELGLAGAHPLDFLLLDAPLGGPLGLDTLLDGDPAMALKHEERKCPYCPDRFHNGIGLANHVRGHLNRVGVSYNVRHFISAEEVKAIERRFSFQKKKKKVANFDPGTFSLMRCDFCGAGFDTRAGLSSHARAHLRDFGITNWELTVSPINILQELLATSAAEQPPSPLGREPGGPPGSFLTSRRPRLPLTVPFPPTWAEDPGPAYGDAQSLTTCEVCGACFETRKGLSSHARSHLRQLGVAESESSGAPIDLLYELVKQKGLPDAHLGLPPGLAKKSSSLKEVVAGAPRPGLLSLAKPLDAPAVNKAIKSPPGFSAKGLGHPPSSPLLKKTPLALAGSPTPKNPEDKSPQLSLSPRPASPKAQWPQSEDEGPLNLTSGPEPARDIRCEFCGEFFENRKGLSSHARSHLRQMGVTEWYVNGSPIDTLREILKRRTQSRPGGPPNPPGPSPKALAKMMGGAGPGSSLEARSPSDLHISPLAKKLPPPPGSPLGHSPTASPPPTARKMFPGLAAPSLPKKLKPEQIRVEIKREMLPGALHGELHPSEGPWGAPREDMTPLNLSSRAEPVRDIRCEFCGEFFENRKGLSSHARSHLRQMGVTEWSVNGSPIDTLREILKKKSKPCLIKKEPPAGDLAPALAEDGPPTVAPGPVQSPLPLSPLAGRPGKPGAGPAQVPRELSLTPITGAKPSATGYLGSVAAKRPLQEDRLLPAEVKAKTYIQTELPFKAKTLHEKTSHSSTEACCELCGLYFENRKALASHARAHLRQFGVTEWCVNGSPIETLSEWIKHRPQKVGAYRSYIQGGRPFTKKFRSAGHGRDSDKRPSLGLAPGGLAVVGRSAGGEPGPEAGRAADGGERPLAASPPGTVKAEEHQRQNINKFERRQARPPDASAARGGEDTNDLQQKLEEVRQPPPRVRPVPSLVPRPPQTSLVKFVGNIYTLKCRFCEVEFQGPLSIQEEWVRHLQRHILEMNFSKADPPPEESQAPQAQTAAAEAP
HiBit-WIZ fusion protein, sequence (Q96SW2 whole entry, the tested form may be a part): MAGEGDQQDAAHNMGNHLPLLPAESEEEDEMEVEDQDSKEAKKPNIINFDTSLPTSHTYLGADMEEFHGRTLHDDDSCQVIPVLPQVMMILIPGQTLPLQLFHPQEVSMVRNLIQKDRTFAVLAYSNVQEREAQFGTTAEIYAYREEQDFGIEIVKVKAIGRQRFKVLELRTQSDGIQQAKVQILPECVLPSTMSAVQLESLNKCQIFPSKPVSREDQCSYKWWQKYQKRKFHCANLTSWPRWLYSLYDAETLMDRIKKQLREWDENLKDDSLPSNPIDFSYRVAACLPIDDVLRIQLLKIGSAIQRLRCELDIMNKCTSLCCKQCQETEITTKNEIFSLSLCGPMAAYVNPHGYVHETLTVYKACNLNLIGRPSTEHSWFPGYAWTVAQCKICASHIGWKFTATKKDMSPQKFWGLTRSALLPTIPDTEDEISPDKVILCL
HiBit-WIZ fusion protein, sequence (Q16531 whole entry partner, the tested form may be a part): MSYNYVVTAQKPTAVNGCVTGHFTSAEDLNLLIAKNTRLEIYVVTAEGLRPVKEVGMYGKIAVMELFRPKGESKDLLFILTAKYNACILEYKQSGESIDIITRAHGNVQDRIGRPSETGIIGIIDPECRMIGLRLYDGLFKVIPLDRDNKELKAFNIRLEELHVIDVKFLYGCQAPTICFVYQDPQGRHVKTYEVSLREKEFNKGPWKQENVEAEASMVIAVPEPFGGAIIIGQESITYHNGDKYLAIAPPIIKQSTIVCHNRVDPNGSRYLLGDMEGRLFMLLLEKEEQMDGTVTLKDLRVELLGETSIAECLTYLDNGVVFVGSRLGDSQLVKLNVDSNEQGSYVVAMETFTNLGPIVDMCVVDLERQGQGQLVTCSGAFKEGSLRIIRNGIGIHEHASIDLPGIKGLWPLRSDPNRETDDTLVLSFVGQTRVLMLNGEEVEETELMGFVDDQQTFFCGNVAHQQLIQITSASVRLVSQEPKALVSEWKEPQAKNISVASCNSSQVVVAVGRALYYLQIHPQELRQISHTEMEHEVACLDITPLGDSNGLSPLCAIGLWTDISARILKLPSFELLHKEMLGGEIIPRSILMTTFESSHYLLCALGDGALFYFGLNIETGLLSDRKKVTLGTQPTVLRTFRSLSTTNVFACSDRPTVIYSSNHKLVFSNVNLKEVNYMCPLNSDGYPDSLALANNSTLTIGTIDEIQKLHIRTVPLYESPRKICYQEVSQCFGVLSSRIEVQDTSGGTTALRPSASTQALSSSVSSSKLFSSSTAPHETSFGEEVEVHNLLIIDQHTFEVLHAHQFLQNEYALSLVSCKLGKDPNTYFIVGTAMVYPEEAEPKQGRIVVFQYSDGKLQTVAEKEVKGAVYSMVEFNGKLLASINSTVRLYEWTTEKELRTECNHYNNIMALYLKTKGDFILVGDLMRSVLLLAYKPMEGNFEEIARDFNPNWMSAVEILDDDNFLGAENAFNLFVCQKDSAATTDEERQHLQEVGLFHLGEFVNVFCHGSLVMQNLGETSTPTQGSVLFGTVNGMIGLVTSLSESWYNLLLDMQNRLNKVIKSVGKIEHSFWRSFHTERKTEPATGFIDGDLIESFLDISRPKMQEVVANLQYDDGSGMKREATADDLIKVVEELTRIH

SMILES	Dmax [1] [%]	remaining activity at up to 25 µM (HEK-293T, 293T cells) [%]	DC50 [nM]	Dmax (HEK-293T, read-out: % degradation of WIZ (100-Amax), 100 minus Amax, 293T cells) [%]	remaining activity (HEK-293T, read-out: WIZ Amax, DMSO-normalized, curve-fitted percentage of WIZ-HiBit remaining at 25 uM, 293T cells) [%]
O=C1CCC(N2Cc3cc(OC[C@H]4CCCCN4Cc4ccc(N5CCCCC5)cc4)ccc3C2=O)C(=O)N1 (stereo partly drawn) [Compound I-161, 3-(1-oxo-5-(((R)-1-(4-(piperidin-1-yl)benzyl)piperidin-2-yl)methoxy)isoindolin-2-yl)piperidine-2,6-dione]	91.5	8.45	0.37		
O=C1CCC(N2Cc3cc(OC[C@@H]4CCCCN4C(=O)CCn4c(=O)oc5ccccc54)ccc3C2=O)C(=O)N1 (stereo partly drawn) [Compound I-72jb]	0.3	99.7	> 25000		
COC(=O)c1ccc(Oc2ccc(CN3CCCC[C@H]3COc3ccc4c(c3)CN(C3CCC(=O)NC3=O)C4=O)cc2)cc1 (stereo partly drawn) [Compound I-50g]	88.9	11.1	97		
CCc1cc(CN2CCCC[C@@H]2COc2ccc3c(c2)CN(C2CCC(=O)NC2=O)C3=O)ccc1C1CCN(CC)CC1 (stereo partly drawn) [Compound I-157, 3-(5-(((R)-1-(3-ethyl-4-(1-ethylpiperidin-4-yl)benzyl)piperidin-2-yl)methoxy)-1-oxoisoindolin-2-yl)piperidine-2,6-dione]			160	63	37
CN(C)Cc1ncc(-c2ccc(Oc3cc(Cl)cnc3CN3CCCC[C@@H]3COc3ccc4c(c3)CN(C3CCC(=O)NC3=O)C4=O)cc2)n1C (stereo partly drawn) [Compound I-50di]	79	21	1180		
O=C1CCC(N2Cc3cc(OC[C@@H]4CCCCN4C(=O)c4ccc5nccnc5c4)ccc3C2=O)C(=O)N1 (stereo partly drawn) [Compound I-72hq]	13.3	86.7	> 25000		
Cc1nc[nH]c1CN1CCCC[C@H]1COc1ccc2c(c1)CN(C1CCC(=O)NC1=O)C2=O (stereo partly drawn) [Compound I-50ac]	92.3	7.7	578		
O=C1CCC(N2Cc3cc(OC[C@H]4CCCCN4Cc4ccc(C5CCN(CC6CCOCC6)CC5)cc4)ccc3C2=O)C(=O)N1 (stereo partly drawn) [Compound I-197, 3-(1-oxo-5-(((R)-1-(4-(1-((tetrahydro-2H-pyran-4-yl)methyl)piperidin-4-yl)benzyl)piperidin-2-yl)methoxy)isoindolin-2-yl)piperidine-2,6-dione]	51.8	48.2	56		
CC(C)N1CCC(CN2CCCC[C@@H]2COc2ccc3c(c2)CN(C2CCC(=O)NC2=O)C3=O)CC1 (stereo partly drawn) [Compound I-50ea]	81	19	651		
CC(C)c1cc(C(=O)N2CCCC[C@H]2COc2ccc3c(c2)CN(C2CCC(=O)NC2=O)C3=O)no1 (stereo partly drawn) [Compound I-72cf]	35	65	> 25000		
CC(C)(C)OC(=O)N1CCN(c2ccc(CN3CCCC[C@@H]3COc3ccc4c(c3)CN(C3CCC(=O)NC3=O)C4=O)cn2)CC1 (stereo partly drawn) [Compound I-189, Tert-butyl 4-(5-(((2R)-2-(((2-(2,6-dioxopiperidin-3-yl)-1-oxoisoindolin-5-yl)oxy)methyl)piperidin-1-yl)methyl)pyridin-2-yl)piperazine-1-carboxylate]	73.2	26.8	4.3		
O=C1CCC(N2Cc3cc(OC[C@H]4CCCCN4Cc4ccc(C5CCN(CCF)CC5)cc4)ccc3C2=O)C(=O)N1 (stereo partly drawn) [Compound I-198, 3-(5-(((R)-1-(4-(1-(2-fluoroethyl)piperidin-4-yl)benzyl)piperidin-2-yl)methoxy)-1-oxoisoindolin-2-yl)piperidine-2,6-dione]	68	32	13		
Cn1ccc(C(=O)N2CCCC[C@H]2COc2ccc3c(c2)CN(C2CCC(=O)NC2=O)C3=O)cc1=O (stereo partly drawn) [Compound I-72ao]	8.3	91.7	> 25000		
O=C1CCC(N2Cc3cc(OC[C@H]4CCCCN4Cc4cccc5c4NCC5)ccc3C2=O)C(=O)N1 (stereo partly drawn) [Compound I-111, 3-(5-(((R)-1-(indolin-7-ylmethyl)piperidin-2-yl)methoxy)-1-oxoisoindolin-2-yl)piperidine-2,6-dione]	90.7	9.3	11		
O=C1CCC(N2Cc3cc(OC[C@H]4CCCCN4Cc4ccc(N5CCCC5)nc4)ccc3C2=O)C(=O)N1 (stereo partly drawn) [Compound I-50es]	99.5	0.5	3		
O=C1CCC(N2Cc3cc(OC[C@H]4CCCCN4Cc4ccc(O)cc4)ccc3C2=O)C(=O)N1 (stereo partly drawn) [Compound I-148]	94.5	5.51	20		
Cn1nnc2cc(CN3CCCC[C@H]3COc3ccc4c(c3)CN(C3CCC(=O)NC3=O)C4=O)ccc21 (stereo partly drawn) [Compound I-50ah]	44.4	55.6	> 25000		
O=C1CCC(N2Cc3cc(OC[C@@H]4CCCCN4CC4CCN(Cc5ccccc5)CC4)ccc3C2=O)C(=O)N1 (stereo partly drawn) [Compound I-50aj]	99	1	16		
O=C1CCC(N2Cc3cc(OC[C@@H]4CCCCN4C(=O)[C@H]4CCOC4)ccc3C2=O)C(=O)N1 (stereo partly drawn) [Compound I-72fn]	2.6	97.4	> 25000		
CCN1CCC[C@@H](C(=O)N2CCCC[C@H]2COc2ccc3c(c2)CN(C2CCC(=O)NC2=O)C3=O)C1 (stereo partly drawn) [Compound I-72it]	5.9	94.1	> 25000		

SMILES	Dmax [1] [%]	remaining activity at up to 25 µM (HEK-293T, 293T cells) [%]	DC50 [nM]	Dmax (HEK-293T, read-out: % degradation of WIZ (100-Amax), 100 minus Amax, 293T cells) [%]	remaining activity (HEK-293T, read-out: WIZ Amax, DMSO-normalized, curve-fitted percentage of WIZ-HiBit remaining at 25 uM, 293T cells) [%]
COc1ccncc1C(=O)N1CCCC[C@H]1COc1ccc2c(c1)CN(C1CCC(=O)NC1=O)C2=O (stereo partly drawn) [Compound I-72bc]	3	97	> 25000		
COc1cc(CN2CCCC[C@@H]2COc2ccc3c(c2)CN(C2CCC(=O)NC2=O)C3=O)ccc1C (stereo partly drawn) [Compound I-50eu]	99.3	0.7	3		
Cn1ccc(-c2cccc(C(=O)N3CCCC[C@H]3COc3ccc4c(c3)CN(C3CCC(=O)NC3=O)C4=O)c2)n1 (stereo partly drawn) [Compound I-72id]	11	89	> 25000		
O=C1CCC(N2Cc3cc(OC[C@H]4CCCCN4Cc4ccc(F)cc4Cl)ccc3C2=O)C(=O)N1 (stereo partly drawn) [Compound I-114]	94.5	5.54	18		
O=C1CCC(N2Cc3cc(OC[C@H]4CCCCN4Cc4ncc[nH]4)ccc3C2=O)C(=O)N1 (stereo partly drawn) [Compound I-50et]	49.1	50.9	> 25000		
CC(C)Cn1cc(CN2CCCC[C@@H]2COc2ccc3c(c2)CN(C2CCC(=O)NC2=O)C3=O)cn1 (stereo partly drawn) [Compound I-50dw]	99	1	8		
O=C1CCC(N2Cc3cc(OC[C@H]4CCCCN4Cc4ncccc4O)ccc3C2=O)C(=O)N1 (stereo partly drawn) [Compound I-50ej]	17.2	82.8	> 25000		
O=C1CCC(N2Cc3cc(OC[C@@H]4CCCCN4Cc4cccc(N5CCOCC5)n4)ccc3C2=O)C(=O)N1 (stereo partly drawn) [Compound I-50bo]	57.4	42.6	20800		
O=C1CCC(N2Cc3cc(OC[C@H]4CCCCN4Cc4cnn(C5CCCCC5)c4)ccc3C2=O)C(=O)N1 (stereo partly drawn) [Compound I-50ec]	100	0	17		
N#Cc1ccn2cc(CN3CCCC[C@H]3COc3ccc4c(c3)CN(C3CCC(=O)NC3=O)C4=O)nc2c1 (stereo partly drawn) [Compound I-50c]	38.1	61.9	> 25000		
CC(C)CN1CCN(c2ccccc2CN2CCCC[C@@H]2COc2ccc3c(c2)CN(C2CCC(=O)NC2=O)C3=O)CC1 (stereo partly drawn) [Compound I-107, 3-(5-(((R)-1-(2-(4-isobutylpiperazin-1-yl)benzyl)piperidin-2-yl)methoxy)-1-oxoisoindolin-2-yl)piperidine-2,6-dione]	99.8	0.21	16		
Cc1noc(C)c1CN1CCCC[C@@H]1COc1ccc2c(c1)CN(C1CCC(=O)NC1=O)C2=O (stereo partly drawn) [Compound I-50el]	30.3	69.7	> 25000		
O=C1CCC(N2Cc3cc(OC[C@@H]4CCCCN4C(=O)c4csc(N5CCOCC5)n4)ccc3C2=O)C(=O)N1 (stereo partly drawn) [Compound I-72e]	17.1	82.9	> 25000		
Cn1nc(CN2CCCC[C@@H]2COc2ccc3c(c2)CN(C2CCC(=O)NC2=O)C3=O)cc1-c1ccccc1 (stereo partly drawn) [Compound I-50dm]	100	0	7		
CCN(CC)c1ccc(CN2CCCC[C@H]2COc2ccc3c(c2)CN(C2CCC(=O)NC2=O)C3=O)cn1 (stereo partly drawn) [Compound I-50as]	84.3	15.7	327		
O=C1CCC(N2Cc3cc(OC[C@H]4CCCCN4Cc4ccccc4N4CCNCC4)ccc3C2=O)C(=O)N1 (stereo partly drawn) [Compound I-106, 3-(1-oxo-5-(((R)-1-(2-(piperazin-1-yl)benzyl)piperidin-2-yl)methoxy)isoindolin-2-yl)piperidine-2,6-dione]	80.1	19.9	2560		
COc1cc(CN2CCCC[C@H]2COc2ccc3c(c2)CN(C2CCC(=O)NC2=O)C3=O)ccc1C (stereo partly drawn) [Compound I-50s]	84.3	15.7	3800		
O=C1CCC(N2Cc3cc(OC[C@@H]4CCCCN4CC4CCN(C(=O)OCc5ccccc5)CC4)ccc3C2=O)C(=O)N1 (stereo partly drawn) [Compound I-50cr]	52.9	47.1	> 25000		
O=C1CCC(N2Cc3cc(OC[C@@H]4CCCCN4Cc4c[nH]cn4)ccc3C2=O)C(=O)N1 (stereo partly drawn) [Compound I-50al]	54.1	45.9	> 25000		

— patent US11566022B2, “3-(5-methoxy-1-oxoisoindolin-2-yl)piperidine-2,6-dione derivatives and uses thereof” (NOVARTIS AG, priority 2019, dated 2023)
